From patent US7728019B2, “Biphenylcarboxamides” (priority 2002, dated 2010) come the findings set out here.

For one data set, the system named is Botrytis cinerea. Briefly: Botrytis test (bean)/protective. Type of data set: in vivo. To be noted: 48 h, bean plants, protective, application rate 500 g/ha, evaluation 2 days after inoculation, read-out: Efficacy in %. As to the method: (§1) To produce a suitable preparation of active compound, 1 part by weight of active compound is mixed with the stated amounts of solvents and emulsifier, and the concentrate is diluted with water to the desired concentration.
To test for protective activity, young plants are sprayed with the preparation of active compound at the stated application rate. After the spray coating has dried on, 2 small pieces of agar colonized by Botrytis cinerea are placed onto each leaf. The inoculated plants are placed in a dark chamber at about 20° C. and 100% relative atmospheric humidity.
2 days after the inoculation, the size of the infected areas on the leaves is evaluated. 0% means an efficacy which corresponds to that of the control, whereas an efficacy of 100% means that no infection is observed.

A short description of data set [1]: logP determination by HPLC on reverse-phase column (C 18), acidic range pH 2.3. Type of data set: physicochemical. To be noted: for chromatographic logP: reverse-phase HPLC column (C 18). On the procedure:
The logP values given in Table 1 were determined with EEC Directive 79/831 Annex V.A8 by HPLC (High Performance Liquid Chromatography) on a reverse-phase column (C 18). Temperature: 43° C. Mobile phases for the determination in the acidic range (pH 2.3): 0.1% aqueous phosphoric acid, acetonitrile; linear gradient from 10% acetonitrile to 90% acetonitrile. Calibration was carried out using unbranched alkan-2-ones (having 3 to 16 carbon atoms) with known logP values (determination of the logP values by the retention times using linear interpolation between two successive alkanones).

The test system of data set [2] is apple scab pathogen Venturia inaequalis. Put plainly: Venturia test (apple)/protective. Type of data set: in vivo. The settings on record: apple plants, protective; application rate 100 g/ha; evaluation 10 days after inoculation. On the procedure: as §1
To test for protective activity, young plants are sprayed with the preparation of active compound at the stated application rate. After the spray coating has dried on, the plants are inoculated with an aqueous conidia suspension of the apple scab pathogen Venturia inaequalis and then remain in an incubation cabin at about 20° C. and 100% relative atmospheric humidity for 1 day.
The plants are then placed in a greenhouse at about 21° C. and a relative atmospheric humidity of about 90%.
(§2) Evaluation is carried out 10 days after the inoculation. 0% means an efficacy which corresponds to that of the control, whereas an efficacy of 100% means that no infection is observed.

A further data set relates to Puccinia recondita. Put plainly: Puccinia test (wheat)/protective. The class given is in vivo. The settings on record: 240 h, wheat plants, protective, application rate 500 g/ha, evaluation 10 days after inoculation, read-out: Efficacy in %. As to the method: To produce a suitable preparation of active compound, 1 part by weight of active compound is mixed with the stated amounts of solvent and emulsifier, and the concentrate is diluted with water to the desired concentration.
To test for protective activity, young plants are inoculated with a spore suspension of Puccinia recondita in a 0.1% strength aqueous agar solution. After the spray coating has dried on, the plants are sprayed with the preparation of active compound at the stated application rate. The plants remain in an incubation cabin at 20° C. and 100% relative atmospheric humidity for 24 hours.
The plants are then placed in a greenhouse at a temperature of about 20° C. and a relative atmospheric humidity of 80% to promote the development of rust pustules.
as §2

The mark [3] stands for this setting: HPLC, C 18 reverse-phase, 43° C.

For the compound `O=C(Nc1ccccc1-c1ccc(/C=N\OCC2CC2)cc1)c1cccnc1Cl` [Compound 3], in the data set on Botrytis cinerea, the pest or weed control at 500 g/ha came out at 95%. The compound also displayed a chromatographic logP in data set [1] (setting [3]) of 3.57.
For the compound `Cn1cc(C(=O)Nc2ccccc2-c2ccc(/C=N\OCC3CC3)cc2)c(C(F)(F)F)n1` [Compound 4], the Efficacy in % in data set [2] was 91%. Moreover, in data set [1] (setting [3]), the chromatographic logP was 3.77.
Regarding `Cn1cc(C(=O)Nc2ccccc2-c2ccc(/C=N\OCC3CC3)cc2)c(C(F)F)n1` [Compound 7], the pest or weed control at 500 g/ha with Botrytis cinerea was determined as 96%; with Puccinia recondita, 100%. In data set [2], the Efficacy in % is 100%. The chromatographic logP in data set [1] (setting [3]) amounted to 3.53.
For `Cc1nc(C(F)F)c(C(=O)Nc2ccccc2-c2ccc(/C=N\OCC3CC3)cc2)s1` [Compound 8], in the data set on Botrytis cinerea, the pest or weed control at 500 g/ha turned out to be 85%. Besides, the Efficacy in % in data set [2] is reported as 100%. This compound displayed a chromatographic logP in data set [1] (setting [3]) of 3.87.
For the compound `C=CCO/N=C/c1ccc(-c2ccccc2NC(=O)c2sc(C)nc2C(F)F)cc1` [Compound 9, N-[4′-(allyloxyimino-methyl)-biphenyl-2-yl]-4-difluoromethyl-2-methylthiazole-5-carboxamide], the pest or weed control at 500 g/ha with Botrytis cinerea was found to be 95%. This compound had an Efficacy in % in data set [2] of 100%. Further, the chromatographic logP in data set [1] (setting [3]) is 3.65.
On to `C=CCO/N=C(\C)c1ccc(-c2ccccc2NC(=O)c2c(C)nn(C)c2F)cc1` [Compound 17, N-(4′-{1-(allyloxyimino)-ethyl}-biphenyl-2-yl)-5-fluoro-1,3-dimethyl-1H-pyrazole-4-carboxamide], for which, in data set [1], the chromatographic logP worked out at 3.8.
Turning to `C=C(C)CO/N=C(/C)c1ccc(-c2ccccc2NC(=O)c2c(C)nn(C)c2F)cc1` [Compound 36], the “logP (pH 2.3)” value in data set [1] (setting [3]) is 4.18.
Consider `CC#CCO/N=C(/C)c1ccc(-c2ccccc2NC(=O)c2c(C)nn(C)c2F)cc1` [Compound 37], for which the “logP (pH 2.3)” value in data set [1] (setting [3]) was found to be 3.63.
On to `C=CCO/N=C(/C)c1ccc(-c2ccccc2NC(=O)c2ccoc2C)cc1` [Compound 38], for which the “logP (pH 2.3)” value in data set [1] (setting [3]) amounted to 4.14.
As for `C=CCO/N=C(/C)c1ccc(-c2ccccc2NC(=O)C2=C(C)OCCS2)cc1` [Compound 39], the “logP (pH 2.3)” value in data set [1] (setting [3]) came to 4.38.
As for `CC#CCO/N=C(/C)c1ccc(-c2ccccc2NC(=O)c2cn(C)nc2C(F)(F)F)cc1` [Compound 40], the pest or weed control at 500 g/ha in the data set on Puccinia recondita is 100%. Also, in data set [1] (setting [3]), the chromatographic logP was found to be 3.67.
In the case of `CC#CCO/N=C(/C)c1ccc(-c2ccccc2NC(=O)c2cccnc2Cl)cc1` [Compound 41], in data set [1] (setting [3]), the “logP (pH 2.3)” value is 3.48.
Take `C=CC(C)O/N=C(/C)c1ccc(-c2ccccc2NC(=O)c2cccnc2Cl)cc1` (stereo not shown) [Compound 42]: the “logP (pH 2.3)” value in data set [1] (setting [3]) is 2.89.
On to `C=C(C)CO/N=C(/C)c1ccc(-c2ccccc2NC(=O)c2sc(C)nc2C(F)(F)F)cc1` [Compound 44], for which, in data set [1] (setting [3]), the “logP (pH 2.3)” value came to 3.49.
`C=CC(C)O/N=C(/C)c1ccc(-c2ccccc2NC(=O)c2cn(C)nc2C(F)(F)F)cc1` (stereo not shown) [Compound 46]: the “logP (pH 2.3)” value in data set [1] (setting [3]) is reported as 4.15.
On to `C=CC(C)O/N=C(/C)c1ccc(-c2ccccc2NC(=O)c2ccoc2C)cc1` (stereo not shown) [Compound 47], for which the “logP (pH 2.3)” value in data set [1] (setting [3]) is given as 4.52.
Same read-out and setting: under `C=C(C)CO/N=C(/C)c1ccc(-c2ccccc2NC(=O)c2cn(C)nc2C(F)(F)F)cc1` [Compound 48] stands 4.14.
On the same count and under the same terms, the result for `CC#CCO/N=C(/C)c1ccc(-c2ccccc2NC(=O)c2ccoc2C)cc1` [Compound 50] reads 3.95; that for `C=C(C)CO/N=C(/C)c1ccc(-c2ccccc2NC(=O)c2ccoc2C)cc1` [Compound 51], 4.51.
Turning to `C=C(C)CO/N=C(/C)c1ccc(-c2ccccc2NC(=O)c2cn(C)nc2C)cc1` [Compound 52], in data set [1] (setting [3]), the “logP (pH 2.3)” value is 3.52.
Turning to `C=CC(C)O/N=C(/C)c1ccc(-c2ccccc2NC(=O)c2cn(C)nc2C)cc1` (stereo not shown) [Compound 53], the “logP (pH 2.3)” value in data set [1] (setting [3]) is recorded as 3.53.
`C/C(=N\OCC=C(Cl)Cl)c1ccc(-c2ccccc2NC(=O)c2cn(C)nc2C)cc1` [Compound 54, N-(4′-{1-[3,3-dichloroallyloxyimino]ethyl}biphenyl-2-yl)-1,3-dimethyl-1H-pyrazole-4-carboxamide]: in data set [1], the chromatographic logP is 3.97.
Consider `CC#CCO/N=C(/C)c1ccc(-c2ccccc2NC(=O)c2cn(C)nc2C)cc1` [Compound 55], for which the pest or weed control at 500 g/ha with Puccinia recondita is 100%. Further, in data set [1] (setting [3]), the chromatographic logP amounted to 3.06.
As for `C=CC(C)O/N=C(/C)c1ccc(-c2ccccc2NC(=O)c2cn(C)cc2C(F)(F)F)cc1` (stereo not shown) [Compound 57], in data set [1] (setting [3]), the “logP (pH 2.3)” value was determined as 4.41.
For the compound `C=C(C)CO/N=C(/C)c1ccc(-c2ccccc2NC(=O)c2ccccc2C(F)(F)F)cc1` [Compound 58], the “logP (pH 2.3)” value in data set [1] (setting [3]) is 4.64.
Same read-out and setting: the result for `C=CC(C)O/N=C(/C)c1ccc(-c2ccccc2NC(=O)c2ccccc2C(F)(F)F)cc1` (stereo not shown) [Compound 59] reads 4.65.
Still for that read-out and setting: the result for `C=C(C)CO/N=C(/C)c1ccc(-c2ccccc2NC(=O)c2cccnc2Cl)cc1` [Compound 60] reads 3.95; that for `C/C(=N/OCC=C(Cl)Cl)c1ccc(-c2ccccc2NC(=O)c2ccoc2C)cc1` [Compound 61], 4.98.
Turning to `C/C(=N/OCC=C(Cl)Cl)c1ccc(-c2ccccc2NC(=O)c2sc(C)nc2C(F)(F)F)cc1` [Compound 62], the “logP (pH 2.3)” value in data set [1] (setting [3]) was 3.81.
For the compound `C/C(=N/OCC=C(Cl)Cl)c1ccc(-c2ccccc2NC(=O)c2cccnc2Cl)cc1` [Compound 63, 2-chloro-N-{4′-[1-(3,3-dichloroallyloxyimino)ethyl]-biphenyl-2-yl}nicotinamide], the chromatographic logP in data set [1] worked out at 4.43.
With `C#CCO/N=C(\C)c1ccc(-c2ccccc2NC(=O)c2sc(C)nc2C(F)(F)F)cc1` [Compound 67], in data set [1] (setting [3]), the “logP (pH 2.3)” value is 3.72.
As for `C#CCO/N=C(\C)c1ccc(-c2ccccc2NC(=O)c2cccnc2Cl)cc1` [Compound 68], the “logP (pH 2.3)” value in data set [1] (setting [3]) is on record as 3.16.
For `C#CCO/N=C(/C)c1ccc(-c2ccccc2NC(=O)c2sc(C)nc2C(F)F)cc1` [Compound 69], in the data set on Puccinia recondita, the pest or weed control at 500 g/ha turned out to be 100%. This compound also yielded a chromatographic logP in data set [1] (setting [3]) of 3.45.
In the case of `C#CCO/N=C(\C)c1ccc(-c2ccccc2NC(=O)c2cn(C)nc2C(F)(F)F)cc1` [Compound 70], the “logP (pH 2.3)” value in data set [1] (setting [3]) stood at 3.36.
`C#CCO/N=C(\C)c1ccc(-c2ccccc2NC(=O)c2c(C)nn(C)c2F)cc1` [Compound 71]: the “logP (pH 2.3)” value in data set [1] (setting [3]) was 3.27.
Regarding `C#CCO/N=C(/C)c1ccc(-c2ccccc2NC(=O)c2cn(C)nc2C(F)F)cc1` [Compound 72], the pest or weed control at 500 g/ha in the data set on Puccinia recondita turned out to be 100%. In data set [1] (setting [3]), this compound showed a chromatographic logP of 3.14.
Turning to `C#CCO/N=C(\C)c1ccc(-c2ccccc2NC(=O)c2ccccc2C(F)(F)F)cc1` [Compound 73], in data set [1] (setting [3]), the “logP (pH 2.3)” value worked out at 3.83.
On the same count and under the same terms, under `C#CCO/N=C(\C)c1ccc(-c2ccccc2NC(=O)C2=C(C)OCCS2)cc1` [Compound 74] stands 3.81; under `C#CCO/N=C(\C)c1ccc(-c2ccccc2NC(=O)c2cn(C)cc2C(F)(F)F)cc1` [Compound 75], 3.6; under `C#CCO/N=C(\C)c1ccc(-c2ccccc2NC(=O)c2ccoc2C)cc1` [Compound 77], 3.59.
On to `C#CCO/N=C(\C)c1ccc(-c2ccccc2NC(=O)c2cn(C)nc2C)cc1` [Compound 78], for which the “logP (pH 2.3)” value in data set [1] (setting [3]) was 2.75.
For `C#CCO/N=C(\C)c1ccc(-c2ccccc2NC(=O)c2ccccc2I)cc1` [Compound 79], the “logP (pH 2.3)” value in data set [1] (setting [3]) amounted to 3.81.
`C#CCO/N=C(\C)c1ccc(-c2ccccc2NC(=O)c2ccccc2Br)cc1` [Compound 80]: the “logP (pH 2.3)” value in data set [1] (setting [3]) turned out to be 3.74.
For the compound `C#CCO/N=C(\C)c1ccc(-c2ccccc2NC(=O)c2ccccc2Cl)cc1` [Compound 81], in data set [1] (setting [3]), the “logP (pH 2.3)” value was 3.73.
As to `C#CCO/N=C/c1ccc(-c2ccccc2NC(=O)c2cccnc2Cl)cc1` [Compound 82], in data set [1] (setting [3]), the “logP (pH 2.3)” value was determined as 2.92.
As for `C#CCO/N=C/c1ccc(-c2ccccc2NC(=O)c2sc(C)nc2C(F)(F)F)cc1` [Compound 83], the “logP (pH 2.3)” value in data set [1] (setting [3]) is 3.48.
`CC(=O)c1ccc(-c2ccccc2NC(=O)c2cccnc2Cl)cc1` [VIII-1, N-(4′-acetyl-biphenyl-2-yl)-2-chloronicotinamide]: the chromatographic logP in data set [1] was determined as 2.12.
Take `CC(=O)c1ccc(-c2ccccc2N)cc1` [XIV-1, 1-(2′-aminobiphenyl-4-yl)ethanone]: the chromatographic logP in data set [1] was found to be 1.8.

A word on the chromatographic logP: it is a lipophilicity value derived from retention on a column. A lower chromatographic logP goes with lower lipophilicity.
